Laboratory results: patent US10421765B2, “Tetrahydropyrido[4,3-d]pyrimidine inhibitors of ATR kinase” (Board of Regents, The University of Texas System, priority 2017, dated 2019)
Where two headings read alike, the source gives them in different places.

Assays:
[1] = test system: ATR-driven phosphorylation of Chk1 kinase at Serine 345 in HT-29 colorectal adenocarcinoma cells; assay: pCHK1 cellular assay (CHK1 p-Ser345 AlphaScreen SureFire); assay type: cell-based; details: 4-nitroquinoline N-oxide 12 uM, read-out: Cell IC50 (pCHK1 IC50 values)
Experimental: Inhibitors of ATR kinase are effective at inhibiting the ATR-driven phosphorylation of the downstream target Chk1 kinase at Serine 345, following the addition of 4-nitroquinoline N-oxide, a chemical used to induce DNA damage. Cellular IC50 for the inhibitors of ATR described herein were measured in HT-29 colorectal adenocarcinoma cells. HT-29 cells were routinely maintained in McCoy's 5A media (ATCC Catalog #30-2007) supplemented with 10% fetal bovine serum (Sigma Catalog #F2442) and 1× Penicillin-Streptomycin (Gibco Catalog #15140-122) using a humidified incubator (37° C., 5% CO2, and ambient O2).
In preparation for the CHK1 (p-Ser345) ALPHASCREEN® SUREFIRE® assay, cells were harvested and resuspended in McCoy's 5A media supplemented with 10% fetal bovine serum and 1× Penicillin-Streptomycin. Cells were seeded onto a 384-well black CELLSTAR® Tissue Culture Plate (VWR Catalog #89085-314) at a density of 13,000 cells/well in a volume of 40 uL. The microplate was incubated overnight (approximately 20 hours) at 37° C. with 5% CO2 and ambient O2. Stock solutions of the test compounds were prepared in 100% DMSO (Sigma, Catalog #D2650) and serially diluted 1:3 using 100% DMSO. Compounds were additionally diluted 1:33 in culture medium, and 10 ul/well were transferred to the tissue culture plate. Following the compound addition the microplate was incubated at 37° C. for 90 minutes. 10 uL of 4-nitroquinoline N-oxide (Sigma Aldrich Catalog #N8141-1G) diluted in media (final concentration 12 uM) were added to the tissue culture plate followed by a 120 minute incubation at 37° C. The cells were then washed with PBS and lysed using 10 uL/well SUREFIRE® Kit lysis buffer diluted to 1× in water (PerkinElmer Catalog #TGRCHK1S50K), with mixing on an orbital shaker at 500 rpm for 20 min at RT. Lysates were frozen at −20° C. overnight.
4 uL/well of lysate was then transferred from the tissue culture plate to a 384-well, white, low volume, PROXIPLATE™ (PerkinElmer Catalog #600828). 5 uL/well of the acceptor bead solution, prepared by diluting SUREFIRE® Kit activation buffer (PerkinElmer Catalog #TGRCHK1S50K) and ALPHASCREEN® Protein A acceptor beads (PerkinElmer Catalog #6760617R) in SUREFIRE® Kit reaction buffer (PerkinElmer Catalog #TGRCHK1S50K), were added to the lysates under subdued light and incubated at room temperature for 120 min. 2 uL/well of the donor bead solution, prepared by diluting ALPHASCREEN® Streptavidin donor beads (PerkinElmer Catalog #6760617R) in SUREFIRE® Kit dilution buffer (PerkinElmer Catalog #TGRCHK1S50K), were added under subdued light and incubated at room temperature for an addition 120 minutes. The pCHK1 ALPHASCREEN® signal was measured using an ENVISION® plate reader (PerkinElmer). IC50 values were calculated using a four-parameter logistic curve fit using Genedata Screener software. Percent of control for each compound concentration was calculated by the following formula: 100*(Compound−Min)/(Max−Min) where “Max” is the high control, DMSO, and “Min” is the low control, 5 uM ATR inhibitor.

ATR/ATRIP complex = ATR/ATRIP complex (Homo sapiens (Human), UniProt Q13535); assay: ATR/ATRIP enzymatic assay (Caliper-based); assay type: biochemical; details: FAM-labeled RAD17 peptide, ATP
Experimental: Human full-length FLAG-TEV-ATR and His6-ATRIP were co-expressed in HEK293 cells. The cell pellet (20 g) was harvested and lysed in 100 mL of lysis buffer (20 mM Tris-HCl pH 7.5 at room temperature, 137 mM NaCl, 10% glycerol, 1 mM DTT, 1% (v/v) Tween-20, 0.1% (v/v) NP-40, complete protease inhibitor cocktail tablets, phosphatase inhibitor cocktail tablets, 2 mM MgCl2, 0.2 mM EDTA, and 1 mM ATP). After sonication and centrifugation, the supernatant was incubated at 4° C. for 3 hours with 1 mL of anti-FLAG resin (Sigma catalog #A2220) that had been pre-equilibrated in buffer A (20 mM Tris-HCl pH 7.5 at room temperature, 137 mM NaCl, 10% glycerol, 1 mM DTT, 2 mM MgCl2, and 0.2 mM EDTA). The sample was loaded into a column, and then washed with buffer A three times. Protein was subsequently eluted with 2 ml of buffer B (buffer A+200 μg/ml 3×FLAG peptide).
The ability of new chemical matter to inhibit the ATR catalytic activity in this ATR/ATRIP complex was assessed using a Caliper-based assay. A 2x enzyme solution (i.e., 4 nM enzyme) was prepared using 1× Kinase Reaction Buffer (25 mM HEPES pH 8, 0.0055% Brij-35, 10 mM MnCl2, and 1 mM DTT). A 2x peptide solution was then prepared consisting of 10 uM FAM-labeled RAD17 peptide (GL Biochem, catalog #524315) in 1× Kinase Reaction Buffer supplemented with 2 μM ATP. 10 μL of the 2× enzyme solution was transferred to an assay plate containing 60 nL of test compound (from a 3× serial dilution) in 100% DMSO. Following a 30 minute incubation at 28° C., 10 μL of the 2× peptide solution was then transferred to the same assay plate. The reaction was allowed to incubate at 28° C. for 6 hours. After adding […] of stop buffer (100 mM HEPES pH 7.5, 0.015% Brij-35, 0.2% Coating-3 Reagent (PerkinElmer, catalog #PN760050), and 50 mM EDTA), data were collected on a Caliper instrument. Conversion values were converted to inhibition values via the following equation: % inhibition=(max−conversion)/(max−min)*100, whereby “max” corresponds to the DMSO control and “min” corresponds to the low control. IC50 values were calculated using the following equation in XLFit: Y=Bottom+(Top−Bottom)/1+(IC50/X)^HillSlope).

[2] = Homo sapiens, HT-29, HT-29 cells
[3] = read-out: ATR/ATRIP Enzyme IC50
[4] = estimated range, read-out: ATR/ATRIP Enzyme IC50 (estimated class)

ATR/ATRIP complex, sequence (Q13535 whole entry): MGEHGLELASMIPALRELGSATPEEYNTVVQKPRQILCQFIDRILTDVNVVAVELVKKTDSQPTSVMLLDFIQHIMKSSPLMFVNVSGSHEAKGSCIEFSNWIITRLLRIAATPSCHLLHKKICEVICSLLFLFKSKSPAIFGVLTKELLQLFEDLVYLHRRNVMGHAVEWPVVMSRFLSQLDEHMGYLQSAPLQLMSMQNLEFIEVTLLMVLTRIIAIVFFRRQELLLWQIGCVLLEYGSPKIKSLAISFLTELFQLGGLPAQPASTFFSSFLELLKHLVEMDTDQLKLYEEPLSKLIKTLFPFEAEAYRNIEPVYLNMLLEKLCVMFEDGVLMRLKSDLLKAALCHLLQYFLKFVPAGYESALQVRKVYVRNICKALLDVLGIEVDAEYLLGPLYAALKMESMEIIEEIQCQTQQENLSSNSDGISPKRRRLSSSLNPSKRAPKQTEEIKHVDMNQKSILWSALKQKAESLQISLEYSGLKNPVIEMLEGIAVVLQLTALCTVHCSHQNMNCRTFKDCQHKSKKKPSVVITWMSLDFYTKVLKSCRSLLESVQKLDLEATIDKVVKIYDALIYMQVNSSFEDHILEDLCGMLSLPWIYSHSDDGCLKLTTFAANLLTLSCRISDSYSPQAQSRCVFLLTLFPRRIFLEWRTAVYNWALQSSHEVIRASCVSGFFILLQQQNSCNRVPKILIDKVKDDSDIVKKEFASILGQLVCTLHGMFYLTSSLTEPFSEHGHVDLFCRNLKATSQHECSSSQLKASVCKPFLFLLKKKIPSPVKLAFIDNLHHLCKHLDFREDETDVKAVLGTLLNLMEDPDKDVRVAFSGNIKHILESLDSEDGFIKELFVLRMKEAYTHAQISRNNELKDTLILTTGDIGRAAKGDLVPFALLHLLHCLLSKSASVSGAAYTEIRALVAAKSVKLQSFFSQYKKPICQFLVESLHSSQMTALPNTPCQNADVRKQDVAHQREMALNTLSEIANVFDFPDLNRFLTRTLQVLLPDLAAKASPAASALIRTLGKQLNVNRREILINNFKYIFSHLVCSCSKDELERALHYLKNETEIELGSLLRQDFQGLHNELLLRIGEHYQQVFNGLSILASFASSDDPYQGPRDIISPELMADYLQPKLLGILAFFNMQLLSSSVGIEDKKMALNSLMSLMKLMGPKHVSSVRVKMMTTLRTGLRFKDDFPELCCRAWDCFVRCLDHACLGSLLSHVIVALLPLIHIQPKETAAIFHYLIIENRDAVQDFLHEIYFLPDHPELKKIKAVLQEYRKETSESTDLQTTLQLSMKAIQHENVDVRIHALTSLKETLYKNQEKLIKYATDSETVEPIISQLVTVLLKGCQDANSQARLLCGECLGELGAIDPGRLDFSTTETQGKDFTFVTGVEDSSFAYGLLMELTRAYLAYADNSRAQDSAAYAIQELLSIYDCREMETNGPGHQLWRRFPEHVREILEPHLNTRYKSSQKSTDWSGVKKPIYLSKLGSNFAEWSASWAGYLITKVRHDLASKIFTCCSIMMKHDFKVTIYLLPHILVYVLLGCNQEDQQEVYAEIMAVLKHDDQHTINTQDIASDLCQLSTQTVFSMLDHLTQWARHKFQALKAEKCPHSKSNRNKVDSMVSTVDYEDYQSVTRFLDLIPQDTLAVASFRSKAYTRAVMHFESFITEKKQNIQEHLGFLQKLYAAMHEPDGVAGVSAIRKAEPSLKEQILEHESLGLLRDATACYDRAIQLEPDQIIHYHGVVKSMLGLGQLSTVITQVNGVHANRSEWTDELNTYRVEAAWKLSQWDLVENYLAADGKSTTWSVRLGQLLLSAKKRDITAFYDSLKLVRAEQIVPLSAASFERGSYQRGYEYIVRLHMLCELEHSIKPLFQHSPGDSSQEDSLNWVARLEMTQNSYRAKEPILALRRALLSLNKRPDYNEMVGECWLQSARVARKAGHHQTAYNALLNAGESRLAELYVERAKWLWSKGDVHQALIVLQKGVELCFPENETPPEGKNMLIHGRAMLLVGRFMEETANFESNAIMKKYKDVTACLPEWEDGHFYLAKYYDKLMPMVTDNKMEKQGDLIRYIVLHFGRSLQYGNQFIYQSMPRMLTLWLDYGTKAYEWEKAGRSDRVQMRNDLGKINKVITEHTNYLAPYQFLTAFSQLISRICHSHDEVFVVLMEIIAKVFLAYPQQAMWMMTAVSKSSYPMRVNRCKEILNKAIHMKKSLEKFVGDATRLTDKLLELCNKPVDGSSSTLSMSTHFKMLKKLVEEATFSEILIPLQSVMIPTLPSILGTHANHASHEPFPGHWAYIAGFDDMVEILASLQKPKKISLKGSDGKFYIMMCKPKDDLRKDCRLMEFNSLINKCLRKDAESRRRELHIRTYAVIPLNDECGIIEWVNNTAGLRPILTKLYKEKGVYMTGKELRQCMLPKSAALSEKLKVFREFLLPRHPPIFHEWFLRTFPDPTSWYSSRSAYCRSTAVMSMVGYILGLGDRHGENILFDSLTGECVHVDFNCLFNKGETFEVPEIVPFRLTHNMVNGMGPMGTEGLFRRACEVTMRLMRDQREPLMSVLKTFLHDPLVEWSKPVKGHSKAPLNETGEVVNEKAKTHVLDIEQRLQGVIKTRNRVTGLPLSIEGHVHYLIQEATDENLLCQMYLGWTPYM
ATR/ATRIP complex, sequence (Q8WXE1 whole entry partner): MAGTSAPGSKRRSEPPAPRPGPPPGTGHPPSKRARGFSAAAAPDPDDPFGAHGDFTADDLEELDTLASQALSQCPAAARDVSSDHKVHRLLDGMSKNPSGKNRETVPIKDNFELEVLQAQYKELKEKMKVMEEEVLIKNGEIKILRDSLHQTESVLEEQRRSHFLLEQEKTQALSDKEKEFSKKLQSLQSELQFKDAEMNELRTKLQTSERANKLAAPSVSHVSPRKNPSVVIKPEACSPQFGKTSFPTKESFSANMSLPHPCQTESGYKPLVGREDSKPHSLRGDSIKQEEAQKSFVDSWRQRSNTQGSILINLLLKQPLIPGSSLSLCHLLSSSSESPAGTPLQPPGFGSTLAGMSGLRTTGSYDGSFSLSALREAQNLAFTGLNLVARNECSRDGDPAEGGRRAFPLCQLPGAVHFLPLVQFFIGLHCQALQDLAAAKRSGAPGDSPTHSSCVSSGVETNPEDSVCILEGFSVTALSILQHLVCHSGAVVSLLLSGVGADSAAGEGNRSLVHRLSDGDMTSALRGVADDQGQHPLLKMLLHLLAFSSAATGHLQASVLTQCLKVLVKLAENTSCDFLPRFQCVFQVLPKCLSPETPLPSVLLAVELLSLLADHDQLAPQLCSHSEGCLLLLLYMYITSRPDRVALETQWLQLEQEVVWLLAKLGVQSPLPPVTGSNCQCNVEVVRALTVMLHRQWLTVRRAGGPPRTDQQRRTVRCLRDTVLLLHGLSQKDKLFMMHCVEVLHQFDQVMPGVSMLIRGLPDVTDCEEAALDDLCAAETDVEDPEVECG

For C[C@@H]1Cc2ncnc(N3CCC[C@@H](NS(C)(=O)=O)C3)c2CN1c1cc(Cl)nc2[nH]ccc12 [Example 72, N-((R)-1-((R)-6-(6-chloro-1H-pyrrolo[2,3-b]-pyridin-4-yl)-7-methyl-5,6,7,8-tetrahydropyrido-[4,3-d]pyrimidin-4-yl)-piperidin-3-yl)-methanesulfonamide], the IC50 [1, 2] was 119 nM and the IC50 (ATR/ATRIP complex; [3]) was 715 nM.

In the case of C[C@@H]1Cc2ncnc(C3CCCN(S(C)(=O)=O)C3)c2CN1c1ccnc2[nH]ccc12 (stereo partly drawn) [Example 16, 1-methanesulfonyl-3-[(7R)-7-methyl-6-{1H-pyrrolo[2,3-b]pyridin-4-yl}-5H,6H,7H,8H-pyrido[4,3-d]pyrimidin-4-yl]piperidine], the IC50 [1, 2] is reported as 140 nM and the IC50 (ATR/ATRIP complex; [3]) is reported as 3570 nM.

For C[C@@H]1Cc2ncnc(N3CC(S(C)(=O)=O)C3)c2CN1c1ccnc2[nH]ccc12 [Example 36, 3-methanesulfonyl-1-[(7R)-7-methyl-6-{1H-pyrrolo[2,3-b]pyridin-4-yl}-5H,6H,7H,8H-pyrido[4,3-d]pyrimidin-4-yl]azetidine], the IC50 [1, 2] was 128 nM.

Compound COC(=O)NC1[C@@H]2CC[C@H]1CN(c1ncnc3c1CN(c1cc(Cl)nc4[nH]ccc14)[C@H](C)C3)C2 (stereo partly drawn) [Example 28, methyl N-{3-[(7R)-6-{6-chloro-1H-pyrrolo[2,3-b]-pyridin-4-yl}-7-methyl-5H,6H,7H,8H-pyrido[4,3-d]pyrimidin-4-yl]-3-aza-bicyclo[3.2.1]octan-8-yl}carbamate] has an IC50 [1, 2] of 46 nM and an IC50 (ATR/ATRIP complex; [4]) of 1000 to 10000 nM.

For CS(=O)(=O)N1CCC(c2ncnc3c2CN(c2ccnc4[nH]ccc24)C(CF)C3)CC1 (stereo not drawn) [Example 92], the IC50 [1, 2] was 586 nM and the IC50 (ATR/ATRIP complex; [3]) was 1290 nM.

Work on C[C@@H]1Cc2ncnc(N3CCC(S(C)(=O)=O)CC3)c2CN1c1ccnc2[nH]ccc12 [Example 8, (R)-7-Methyl-4-(4-(methylsulfonyl)piperidin-1-yl)-6-(1H-pyrrolo[2,3-b]pyridin-4-yl)-5,6,7,8-tetrahydropyrido[4,3-d]pyrimidine bis(trifluoroacetate)] yielded an IC50 [1, 2] of 127 nM and an IC50 (ATR/ATRIP complex; [3]) of 979 nM.

For C[C@@H]1Cc2ncnc(N3CCC4(CC3)NC(=O)NC4=O)c2CN1c1cc(Cl)nc2[nH]ccc12 [Example 61, (R)-8-(6-(6-chloro-1H-pyrrolo[2,3-b]pyridin-4-yl)-7-methyl-5,6,7,8-tetrahydropyrido[4,3-d]pyrimidin-4-yl)-1,3,8-triazaspiro[4.5]decane-2,4-dione], the IC50 [1, 2] was 570 nM and the IC50 (ATR/ATRIP complex; [3]) was 514 nM.

COC(=O)N1CCCC(c2ncnc3c2CN(c2cc(Cl)nc4[nH]ccc24)[C@H](C)C3)C1 (stereo partly drawn) [Example 10, Methyl 3-((R)-6-(6-chloro-1H-pyrrolo[2,3-b]pyridin-4-yl)-7-methyl-5,6,7,8-tetrahydro-pyrido[4,3-d]pyrimidin-4-yl)piperidine-1-carboxylate bis(trifluoroacetate)] showed an IC50 [1, 2] of 39 nM and an IC50 (ATR/ATRIP complex; [3]) of 408 nM.

With C[C@@H]1Cc2ncnc(C3CCN(S(C)(=O)=O)CC3)c2CN1c1cc(OCC(F)(F)F)nc2[nH]ccc12 [Example 96, (R)-7-methyl-4-(1-(methylsulfonyl)piperidin-4-yl)-6-(6-(2,2,2-tri-fluoroethoxy)-1H-pyrrolo[2,3-b]pyridin-4-yl)-5,6,7,8-tetrahydro-pyrido[4,3-d]pyrimidine] the IC50 [1, 2] was 22 nM and the IC50 (ATR/ATRIP complex; [3]) was 321 nM.

For C[C@@H]1Cc2ncnc(C3CCN(S(C)(=O)=O)CC3)c2CN1c1ccnc2[nH]ccc12 [Example 6, (R)-7-Methyl-4-(1-(methylsulfonyl)piperidin-4-yl)-6-(1H-pyrrolo[2,3-b]pyridin-4-yl)-5,6,7,8-tetrahydropyrido[4,3-d]pyrimidine bis(trifluoroacetate)], the IC50 [1, 2] was 52 nM and the IC50 (ATR/ATRIP complex; [3]) was 499 nM.

CC1Cc2ncnc(-c3ccc(S(C)(=O)=O)cc3)c2CN1c1ccnc2[nH]ccc12 (stereo not drawn) [Example 3, 7-Methyl-4-(4-(methylsulfonyl)phenyl)-6-(1H-pyrrolo[2,3-b]pyridin-4-yl)-5,6,7,8-tetrahydropyrido[4,3-d]pyrimidine bis(trifluoroacetate)] showed an IC50 [1, 2] of 183 nM and an IC50 (ATR/ATRIP complex; [3]) of 1970 nM.

C[C@@H]1Cc2ncnc(C3CCN(S(C)(=O)=O)CC3)c2CN1c1ncnc2[nH]ccc12 [Example 43, (R)-7-methyl-4-(1-(methylsulfonyl)piperidin-4-yl)-6-(7H-pyrrolo[2,3-d]pyrimidin-4-yl)-5,6,7,8-tetrahydropyrido[4,3-d] pyrimidine] gave an IC50 (ATR/ATRIP complex; [4]) of 1000 to 10000 nM.

For C[C@@H]1Cc2ncnc([C@H]3CCCN(S(C)(=O)=O)C3)c2CN1c1cc(Cl)nc2[nH]ccc12 (single isomer, unassigned) [Example 51b], the IC50 ([1]; HT-29 cells) was 48 nM.

C[C@@H]1Cc2ncnc(N3CCC(S(C)(=O)=O)CC3)c2CN1c1ccnc2[nH]ccc12 [Example 88, (R)-7-methyl-4-(4-(methylsulfonyl)-piperidin-1-yl)-6-(1H-pyrrolo[2,3-b]pyridin-4-yl)-5,6,7,8-tetrahydro-pyrido[4,3-d]pyrimidine] gave an IC50 (ATR/ATRIP complex; [3]) of 615 nM.

In the case of C[C@@H]1Cc2ncnc(N3C[C@H]4CC[C@@H](C3)[C@H]4NS(C)(=O)=O)c2CN1c1cc(Cl)nc2[nH]ccc12 [Example 39, N-((1R,5S)-(8-syn)-3-((R)-6-(6-chloro-1H-pyrrolo[2,3-b]pyridin-4-yl)-7-methyl-5,6,7,8-tetrahydropyrido[4,3-d]pyrimidin-4-yl)-3-azabicyclo[3.2.1]octan-8-yl)methanesulfonamide], the IC50 [1, 2] is reported as 27 nM.

C[C@@H]1Cc2ncnc([C@@H]3CCCN(S(C)(=O)=O)C3)c2CN1c1cc(Cl)nc2[nH]ccc12 (single isomer, unassigned) [Example 51a] was tested, and the IC50 ([1]; HT-29 cells) was 11 nM.

Work on C[C@@H]1Cc2ncnc(N3CC(NS(C)(=O)=O)C3)c2CN1c1cc(Cl)nc2[nH]ccc12 [Example 35, N-{1-[(7R)-6-{6-chloro-1H-pyrrolo[2,3-b]pyridin-4-yl}-7-methyl-5H,6H,7H,8H-pyrido[4,3-d]pyrimidin-4-yl]azetidin-3-yl}methanesulfonamide] yielded an IC50 [1, 2] of 34 nM.
